The values that follow come from patent US20260132132A1, “3A,4,5,6-TETRAHYDRO-1 H-PYRAZOLO[3,4-C]PYRIDIN-7(7AH)-ONE DERIVATIVES AS FACTOR XIIA INHIBITORS” (KALVISTA PHARMACEUTICALS LIMITED, priority 2022, published 2026).

For orientation: IC50 means the point on the concentration scale where inhibition reaches its midpoint. In general, bioavailability refers to the share of a dose that reaches the circulation, judged against a reference dose that is usually intravenous. The term half-life denotes how long it takes for the measured level to halve. Low values mean fast loss, high ones slow loss.

Data set [1] deals with patients with type I/II hereditary angioedema (HAE). As to conditions: phase 3 study; monthly prophylactic subcutaneous treatment; cited from earlier work.
The target of the next data set is Thrombin (Homo sapiens, UniProt P00734). The data set is described as follows: Related protease inhibition: Thrombin, fluorogenic substrate. The format is biochemical. As to conditions: fluorogenic substrate at Km, 25° C.; H1-H3 = % activity at 40 μM; read-out: IC50 (human thrombin) nM. As for the experimental part: (§1) Human serine protease enzyme Plasma Kallikrein, KLK1, FXa, Plasmin, Thrombin and Trypsin were assayed for enzymatic activity using an appropriate fluorogenic substrate at Km concentration, FXIa at fixed substrate concentration of 100 μM and various concentrations of the test compound.

The target in data set [2] is T1, Human Factor XIIa (hFXIIa) (Homo sapiens, UniProt P00748).
T1 construct: purchased Enzyme Research Laboratories
T1 sequence (P00748 373-615 limits assumed): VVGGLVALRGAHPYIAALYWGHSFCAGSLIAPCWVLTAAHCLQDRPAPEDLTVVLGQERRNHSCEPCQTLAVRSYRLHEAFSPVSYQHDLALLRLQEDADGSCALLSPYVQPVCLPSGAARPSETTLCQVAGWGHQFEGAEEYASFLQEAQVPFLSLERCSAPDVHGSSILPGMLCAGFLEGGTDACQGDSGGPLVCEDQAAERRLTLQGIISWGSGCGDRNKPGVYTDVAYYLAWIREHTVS
T1 sequence (P00748 20-372 partner limits assumed): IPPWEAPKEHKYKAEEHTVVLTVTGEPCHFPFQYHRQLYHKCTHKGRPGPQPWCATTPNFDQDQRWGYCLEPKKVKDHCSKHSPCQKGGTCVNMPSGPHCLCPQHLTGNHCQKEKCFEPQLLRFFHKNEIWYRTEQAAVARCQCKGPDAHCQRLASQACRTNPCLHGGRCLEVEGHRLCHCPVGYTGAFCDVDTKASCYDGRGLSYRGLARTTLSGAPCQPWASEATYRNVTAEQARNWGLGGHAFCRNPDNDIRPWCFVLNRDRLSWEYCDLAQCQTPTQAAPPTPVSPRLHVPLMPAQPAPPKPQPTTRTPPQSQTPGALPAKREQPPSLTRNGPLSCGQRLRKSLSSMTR
In words: Determination of Human Factor XIIa (hFXIIa) inhibition, fluorogenic substrate IC50 assay. The data set is classed as biochemical. As to conditions: fluorogenic substrate H-DPro-Phe-Arg-AFC at Km, 25° C., read-out: Human FXIIa IC50. As for the experimental part:
Determination of Human Factor XIIa (hFXIIa) inhibition
The Km for the cleavage of the substrate by hFXIIa was determined by standard transformation of the Michaelis-Menten equation, with subsequent inhibition assays performed at substrate Km concentration.

For another data set, the target named is FXa (Homo sapiens, UniProt P00742). In words: Related protease inhibition: FXa, fluorogenic substrate. The data set is classed as biochemical. As to conditions: fluorogenic substrate at Km, 25° C., H1-H3 = % activity at 40 μM; for activity at 40 µM: read-out: IC50 (human FXa) nM. As for the experimental part: as §1
FXa, sequence (P00742 235-488 limits assumed): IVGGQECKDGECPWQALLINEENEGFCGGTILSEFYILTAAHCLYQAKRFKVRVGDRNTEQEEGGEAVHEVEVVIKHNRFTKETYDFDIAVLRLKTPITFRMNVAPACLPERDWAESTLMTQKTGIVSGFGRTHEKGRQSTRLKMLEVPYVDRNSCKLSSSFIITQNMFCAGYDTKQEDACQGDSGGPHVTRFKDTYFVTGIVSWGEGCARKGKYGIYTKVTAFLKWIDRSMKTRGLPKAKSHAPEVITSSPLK
FXa, sequence (P00742 41-179 partner limits assumed): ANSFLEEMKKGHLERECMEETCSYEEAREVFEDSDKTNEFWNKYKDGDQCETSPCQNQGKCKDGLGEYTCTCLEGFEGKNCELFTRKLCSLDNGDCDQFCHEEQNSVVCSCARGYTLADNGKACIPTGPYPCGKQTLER
Data set [3] is described as follows: Pharmacokinetics following a single intravenous dose and a single oral dose in rats. As to conditions: rat, male Sprague-Dawley rats, single iv dose (nominal 1 mg/kg) and single oral dose (nominal 5 mg/kg) in 10% DMSO/10% Cremophor EL/80% SWFI, plasma by LCMS, Phoenix WinNonlin; for bioavailability: read-out: F % (oral bioavailability); for half-life: route for T½ not stated. The format is in vivo. On the procedure:
Pharmacokinetic studies of the compounds in Table 10 were performed to assess the pharmacokinetics following a single intravenous dose and a single oral dose in male Sprague-Dawley rats. Two rats were given a single intravenous dose of 1 ml/kg of a nominal 1 mg/ml (1 mg/kg) composition of test compound in 10% DMSO/10% Cremophor EL/80% SWFI vehicle. Two rats were given a single oral dose of 5 mL/kg of a nominal 1 mg/ml (5 mg/kg) composition of test compound in 10% DMSO/10% Cremophor EL/80% SWFI vehicle.
Following intravenous dosing, blood samples were collected over a period of 12 h. Sample times were 2, 5, 15 and 30 min then 1, 2, 4, 6, and 12 h. Following oral dosing, blood samples were collected over a period of 24 h. Sample times were 5, 15 and 30 min then 1, 2, 4, 6, 8, 12 and 24 h.
Following collection, blood samples were centrifuged and the plasma fraction analysed for concentration of test compound by LCMS. Oral bioavailability and half-life calculations from these studies were obtained using Phoenix WinNonlin (v8.0) and are shown below: […]

In the case of “Garadacimab: "a monoclonal antibody inhibitory against FXIIa"”, the “attacks in patients with type I/II hereditary angioedema (HAE)” value in data set [1] is given as “reduce attacks”.

Regarding `CN1CCOc2ccc(N3CCc4c(C(=O)N[C@@H](CO)C5CC5)nn(-c5cccc(Cl)c5F)c4C3=O)cc2C1=O` [Example 2049, (R)-1-(3-chloro-2-fluorophenyl)-N-(1-cyclopropyl-2-hydroxyethyl)-6-(4-methyl-5-oxo-2,3,4,5-tetrahydrobenzo[f][1,4]oxazepin-7-yl)-7-oxo-4,5,6,7-tetrahydro-1H-pyrazolo[3,4-c]pyridine-3-carboxamide], at Thrombin, the activity at 40 µM is above 80%. Also, the IC50 in data set [2] lay within 10 to 100 nM. The activity at 40 µM at FXa is below 20%. For the same compound, in data set [3], the bioavailability was found to be 28% and the half-life came to 1.42 h.

Consider `CN1CCc2ccc(N3CCc4c(C(=O)N[C@H](CO)c5ccccc5)nn(-c5cccc(Cl)c5)c4C3=O)cc2C1` [Example 1024, (S)-1-(3-Chlorophenyl)-N-(2-hydroxy-1-phenylethyl)-6-(2-methyl-1,2,3,4-tetrahydroisoquinolin-7-yl)-7-oxo-4,5,6,7-tetrahydro-1H-pyrazolo[3,4-c]pyridine-3-carboxamide], for which the IC50 in data set [2] is 100 to 300 nM. The IC50 against FXa was in the range of 1000 to 3000 nM. Further, in data set [3], the bioavailability was found to be 36% and the half-life stood at 5.47 h.

`O=C(NCC1CC1)c1nn(-c2cccc(Cl)c2)c2c1CCN(c1ccc3c(c1)CN(CCO)CC3)C2=O` [Example 1055, 1-(3-Chlorophenyl)-N-(cyclopropylmethyl)-6-(2-(2-hydroxyethyl)-1,2,3,4-tetrahydroisoquinolin-7-yl)-7]: the IC50 was 10 to 100 nM in data set [2] and above 40000 nM at FXa. Moreover, in data set [3], the bioavailability turned out to be 55%. This compound gave a half-life in data set [3] of 4.62 h.

As to `CN1CCc2ccc(N3CCc4c(C(=O)NCC5CC5)nn(-c5cccc(Cl)c5)c4C3=O)cc2C1=O` [Example 1149, 1-(3-chlorophenyl)-N-(cyclopropylmethyl)-6-(2-methyl-1-oxo-1,2,3,4-tetrahydroisoquinolin-7-yl)-7-oxo-4,5,6,7-tetrahydro-1H-pyrazolo[3,4-c]pyridine-3-carboxamide], the IC50 in data set [2] was 300 to 1000 nM. At FXa, the IC50 was above 40000 nM. In data set [3], the bioavailability was 56% and the half-life was 2.22 h.

In the case of `Cc1cc(CNC(=O)c2nn(-c3cccc(Cl)c3)c3c2CCN(c2cc4c(cn2)CCN(CCO)C4)C3=O)nn1C` [Example 1220, 1-(3-chlorophenyl)-N-((1,5-dimethyl-1H-pyrazol-3-yl)methyl)-6-(6-(2-hydroxyethyl)-5,6,7,8-tetrahydro-2,6-naphthyridin-3-yl)-7-oxo-4,5,6,7-tetrahydro-1H-pyrazolo[3,4-c]pyridine-3-carboxamide], the IC50 in data set [2] was 10 to 100 nM. The IC50 against FXa was 10000 to 40000 nM. In data set [3], the bioavailability was determined as 22% and the half-life is 1.17 h.

On to `Cc1cc(CNC(=O)c2nn(-c3cccc(Cl)c3)c3c2CCN(c2ccc4c(c2)C(=O)N(CCO)CC4)C3=O)nn1C` [Example 1222, 1-(3-chlorophenyl)-N-((1,5-dimethyl-1H-pyrazol-3-yl)methyl)-6-(2-(2-hydroxyethyl)-1-oxo-1,2,3,4-tetrahydroisoquinolin-7-yl)-7-oxo-4,5,6,7-tetrahydro-1H-pyrazolo[3,4-c]pyridine-3-carboxamide], for which, in data set [2], the IC50 lay within 10 to 100 nM. Besides, in data set [3], the bioavailability was 5% and the half-life was 0.583 h.

For the compound `Cc1cc(C)c(CNC(=O)c2nn(-c3cccc(Cl)c3)c3c2CCN(c2ccc4c(c2)CN(CCO)CC4)C3=O)cn1` [Example 1128, 1-(3-Chlorophenyl)-N-((4,6-dimethylpyridin-3-yl)methyl)-6-(2-(2-hydroxyethyl)-1,2,3,4-tetrahydroisoquinolin-7-yl)-7-oxo-4,5,6,7-tetrahydro-1H-pyrazolo[3,4-c]pyridine-3-carboxamide], the figures for the IC50 (in data set [2]; against FXa) were 10 to 100 nM and 10000 to 40000 nM, respectively. For the same compound, the bioavailability in data set [3] was determined as 27%. The same compound showed a half-life in data set [3] of 4.55 h.

Regarding `CN1CCOc2ccc(N3CCc4c(C(=O)N[C@@H]5CCOC5)nn(-c5cccc(Cl)c5F)c4C3=O)cc2C1=O` [Example 2048, (R)-1-(3-chloro-2-fluorophenyl)-6-(4-methyl-5-oxo-2,3,4,5-tetrahydrobenzo[f][1,4]oxazepin-7-yl)-7-oxo-N-(tetrahydrofuran-3-yl)-4,5,6,7-tetrahydro-1H-pyrazolo[3,4-c]pyridine-3-carboxamide], the values for the activity at 40 µM at Thrombin and at FXa were above 80% and 20 to 80%, respectively. The 50% inhibitory concentration (IC50) in data set [2] was in the range of 10 to 100 nM. In addition, the bioavailability in data set [3] stood at 57%. The half-life in data set [3] is 0.817 h.

As for `CN1CCc2ccc(N3CCc4c(C(=O)N[C@@H]5CCOC5)nn(-c5cccc(Cl)c5F)c4C3=O)cc2C1=O` [Example 2039, (R)-1-(3-chloro-2-fluorophenyl)-6-(2-methyl-1-oxo-1,2,3,4-tetrahydroisoquinolin-7-yl)-7-oxo-N-(tetrahydrofuran-3-yl)-4,5,6,7-tetrahydro-1H-pyrazolo[3,4-c]pyridine-3-carboxamide], in data set [2], the IC50 was 100 to 300 nM. The same compound yielded a concentration for half-maximal inhibition (IC50) on FXa above 40000 nM. In data set [3], the bioavailability is 27% and the half-life came to 0.75 h.
